Assay results published in patent publication US20090203644A1, “Compositions for treating and/or preventing diseases characterized by the presence of metal ions” (GrenPharma LLC, priority 2004, published 2009).
“Also recorded” adds a separate entry of the source. Like-named read-outs stand apart in the source and are kept apart here.

How the values were obtained:
A-beta antigen = system: A-beta antigen; design: species or system human
A-beta peptide fragment = A-beta peptide fragment (Homo sapiens, UniProt P05067); assay: CD helix-coil reversal and pretreatment experiments (Example 11); type: biochemical
[1] = 20 mM in 25 mM or 100 mM MOPS, pH 7.1
A-beta peptide [2] = system: A-beta peptide; design: species or system human
A-beta peptide [3] = target: A-beta peptide (Homo sapiens, UniProt P05067); type: biochemical
A-beta1-42 peptide = A-beta1-42 peptide (Homo sapiens, UniProt P05067); type: biochemical
[4] = Permeation of Transwell membranes alone (wells without cells)
[5] = in vivo; cited from earlier work

A-beta peptide fragment, sequence (P05067 672-713): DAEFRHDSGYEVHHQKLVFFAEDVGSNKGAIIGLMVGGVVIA
A-beta1-42 peptide, sequence (P05067 672-713): as above
A-beta peptide (Homo sapiens, UniProt P05067), sequence (P05067 672-713): as above

C[Si](Cl)(Cl)CC[Si](C)(Cl)Cl [compound 1042, 1,2-(methyldichlorosilyl)ethane]
Cell Permeation Coefficient (cm/sec) Caco-2 (Caco-2 cells; Caco-2): 6.7e-05 cm/s | Permeation Coefficient (cm/sec) Mean ± SD, where applicable (Caco-2 cells; Caco-2): 2.5e-05 cm/s | Total Permeation Coefficient (cm/sec) Mean ± SD, where applicable, Caco-2 (Caco-2 cells; Caco-2): 1.9 ± 1.1 × 10^−5 cm/sec | cell permeation coefficient compared with mannitol, Caco-2 (Caco-2 cells; Caco-2): at least ten times greater | crossing of the epithelial barrier in the Caco-2 model (Caco-2 cells; Caco-2): cross the epithelial barrier relatively efficiently | permeation across Caco-2 cells compared with mannitol (Caco-2 cells; Caco-2): at least ten times greater | share of total antigen released to the extract (A-beta antigen): approximately 12% | total extracted (A-beta antigen): 14.0 fmol | Cell Permeation Coefficient (cm/sec) MDCK (MDCK cells): 5.6e-05 cm/s | Total Permeation Coefficient (cm/sec) Mean ± SD, where applicable, MDCK (MDCK cells): 1.8 ± 1.2 × 10^−5 cm/sec | cell permeation coefficient compared with mannitol, MDCK (MDCK cells): at least ten times greater | crossing of the epithelial barrier in the MDCK model (MDCK cells): cross the epithelial barrier relatively efficiently | permeation across MDCK cells compared with mannitol (MDCK cells): at least ten times greater | recovery of helicity in Al-denatured peptide / reversal of aluminum-induced denaturation (CD) (A-beta peptide fragment; TFE solution, Al(ClO4)3): recovery of helicity | time for which solutions were free of precipitate or colloidal suspensions / stable after preparation [1]: at least 24 hours | amyloid extracted compared with MOPS / buffer controls (A-beta peptide [2]): more amyloid | share of total antigen released to the extract (A-beta peptide [2]): approximately 6% | total extracted (A-beta peptide [2]): 17.2 fmol

C[Si](Cl)(Cl)CCC#N [CEMS, 2-cyanoethylmethyldichlorosilane]
Permeation Coefficient (cm/sec) Mean ± SD, where applicable (Caco-2 cells; human, Caco-2): 4.6e-06 cm/s | Total Permeation Coefficient (cm/sec) Mean ± SD, where applicable, Caco-2 (Caco-2 cells; human, Caco-2): 4.6e-06 cm/s | protection from and/or reversal of metal-induced aggregation (DLS) (A-beta peptide [3]): protection against Al^3+-induced aggregation | total extracted (A-beta antigen): 1.4 fmol | Total Permeation Coefficient (cm/sec) Mean ± SD, where applicable, MDCK (MDCK cells; dog): 1.3e-06 cm/s | protection against loss of helicity upon addition of Al(ClO4)3 (A-beta peptide fragment): protection against loss of helicity | recovery of helical structure (CD) (A-beta peptide fragment): recovery of helical structure | recovery of helicity (CD) (A-beta peptide fragment): recovery of helicity | recovery of helicity in Al-denatured peptide / reversal of aluminum-induced denaturation (CD) (A-beta peptide fragment): appeared to reverse aluminum-induced denaturation; also recorded: recovery of helicity | total extracted (A-beta peptide [2]): 4.5 fmol | amount of Al added until which helicity was preserved (A-beta1-42 peptide): about 1 equivalent | protection of helical structure of A-beta1-42 against amyloid formation by aluminum (III) (A-beta1-42 peptide): protection of the helical structure

OC[C@@H](O)[C@@H](O)[C@H](O)[C@H](O)CO [mannitol, reference compound]
Cell Permeation Coefficient (cm/sec) Caco-2 (Caco-2 cells; human, Caco-2, 60 min): 2.6e-06 cm/s | Permeation Coefficient (cm/sec) Mean ± SD, where applicable (Caco-2 cells; human, Caco-2, 60 min, 20 mM): 1.9 ± 1.9 × 10^−6 cm/sec | Total Permeation Coefficient (cm/sec) Mean ± SD, where applicable, Caco-2 (Caco-2 cells; human, Caco-2, 60 min, 20 mM): 1.9 ± 1.9 × 10^−6 cm/sec | Cell Permeation Coefficient (cm/sec) MDCK (MDCK cells; dog, 60 min): 1.4e-06 cm/s | Total Permeation Coefficient (cm/sec) Mean ± SD, where applicable, MDCK (MDCK cells; dog, 60 min, 20 mM): 1.3 ± 1.0 × 10^−6 cm/sec | Transwell Permeation Coeff. Mean ± SD, where applicable [4]: 3.6 ± 0.3 × 10^−5 cm/sec

O=C(O)CN(CCN(CC(=O)O)CC(=O)O)CC(=O)O [EDTA, ethylenediaminetetraacetic acid]
time typical doses last in the body [5]: about 1 hour
